According to US11993586B2, “Crystalline forms of potassium channel modulators” (Novartis AG, priority 2018, dated 2024):

Assay: Solid form stability (conversion on heating or storage, by 1H solution NMR and XRPD)
Type: physicochemical
Experimental: Form C was obtained by slow evaporation from an IPA solution at RT. […] (onset temperatures) and 93.3° C. (peak temperature) (FIG. 5).
Form D was obtained via slow evaporation from EtOH solution at RT. […] (onset temperatures) and an exotherm at 88.5° C. (peak temperature) (FIG. 8).
(onset temperatures) (FIG. 9).
Form F was obtained by evaporation of DCM solution (100 mg scale) at RT for 1 day. […] (onset temperatures) and an exotherm at 86.9° C. (peak temperature) (FIG. 11).

## Cc1ccn(-c2nc(NC3CCC(F)(F)CC3)cc(N3CCOCC3)n2)n1 [Form E]
Heated to 130° C.
  Solid form conversion: converted to anhydrate Form B

## Cc1ccn(-c2nc(NC3CCC(F)(F)CC3)cc(N3CCOCC3)n2)n1 [Form C]
Heated to 110° C.
  Solid form conversion: converted to anhydrate Form B
Stored at RT for 8 days
  Solid form conversion: converted to anhydrate Form B

## Cc1ccn(-c2nc(NC3CCC(F)(F)CC3)cc(N3CCOCC3)n2)n1 [Form D]
Stored at RT for a month
  Solid form conversion: converted to anhydrate Form B

## Cc1ccn(-c2nc(NC3CCC(F)(F)CC3)cc(N3CCOCC3)n2)n1 [Form F]
Heated to 120° C.
  Solid form conversion: converted to anhydrate Form B
